The source of these data is patent publication US20220338465A1, “FLUIDIC PLATFORMS FOR PERFUSABLE VASCULARIZED TISSUES” (Massachusetts Institute of Technology, priority 2021, published 2022).

Entries after “also recorded” stand apart in the source; their conditions may differ.

One assay deals with HUVEC monoculture. Kind of assay: Inhibitory tests on MVN formation by HUVEC monoculture in fibrin gel under IF, single channel device. The assay is classed as cell-based, human. The protocol:
(§1) FIGS. 8A-8E are graphs showing that IF enhances the vasculogenesis ability of EC through upregulation of MMP-2. MVN was formed statically with HUVEC monoculture in 3-channel device MVN was formed with HUVEC monoculture in single channel device under IF induced by 10 mm H2O pressure difference, or with various inhibitors added: 100 μM PAI-1, 200 U/ml aprotinin, 50 μM marimast, 50 μM NSC 405020, 100 μg/ml MMP-1 neutralizing antibody and 100 μg/ml control antibody. Samples were pooled at day 3. n=3 FIGS. 8A-8D are graphs showing the statistical analysis of morphological parameters and perfusability of perfusable vessels cultured with various concentration of ARP-100. IF induced by 10 mm H2O pressure difference were applied to all cases. n=5 devices for control, n=3 devices for each inhibitor treated group. Significance was calculated with two sample t tests. ***P<0.01. FIG. 8E is a graph of vascular permeability measurements of 40 kDa dextran for perfusable MVNs formed under various conditions. n=3 devices for each group, 3 measurements were performed in each device at different ROIs.
(§2) Green fluorescent protein (“GFP”) tagged human umbilical vein endothelial cells (HUVECs) and human lung fibroblasts (HLFs) were seeded in a 7:1 ratio for all static and IF experiments. Devices were imaged under confocal microscopy with dextran dye perfused at day 6, when MVN were interconnected and perfusable. Devices were seeded with HUVECs and HLFs in combination and HUVECs alone.
(§3) Perfusability is a crucial factor when evaluating the quality of engineered MVN, since the major function of vessels is to transport nutrients, oxygen, metabolic wastes and various cells through perfusable lumens. Perfusability is measured as the ratio between dextran dye cover area (perfusable vessels) and GFP HUVEC cover area (all the vessels). […] To better interpret perfusability, MVN with at least one perfusable vessels across the gel region is defined as partially perfusable, and MVN with perfusability over 80% is defined as fully perfusable.
HUVEC monoculture of the same concentration were also seeded in single channel devices of FIG. 5B and subjected to IF.
Culture media was also supplemented with high concentration (100 uM) plasminogen activator inhibitor-1, which inhibits both uPA and tPA, or aprotinin, which inhibits plasmin.
ARP-100 (IC50 values are 12, 200, 4500, >50000 and >50000 nM for MMP-2, -9, -3, -1, -7, respectively) and NSC 405020 (selective inhibitor of the collagenolytic activity of MT1-MMP without affecting the catalytic activity of cellular MT1-MMP) were tested as specific inhibitors for MMP-2 and MMP-14. 14. High concentrations of anti-MMP-1 neutralizing antibody were used to inhibit MMP-1 activity

The next assay concerns the target T1, MMP-2 (Homo sapiens, UniProt P08253).
T1 sequence (P08253 110-660): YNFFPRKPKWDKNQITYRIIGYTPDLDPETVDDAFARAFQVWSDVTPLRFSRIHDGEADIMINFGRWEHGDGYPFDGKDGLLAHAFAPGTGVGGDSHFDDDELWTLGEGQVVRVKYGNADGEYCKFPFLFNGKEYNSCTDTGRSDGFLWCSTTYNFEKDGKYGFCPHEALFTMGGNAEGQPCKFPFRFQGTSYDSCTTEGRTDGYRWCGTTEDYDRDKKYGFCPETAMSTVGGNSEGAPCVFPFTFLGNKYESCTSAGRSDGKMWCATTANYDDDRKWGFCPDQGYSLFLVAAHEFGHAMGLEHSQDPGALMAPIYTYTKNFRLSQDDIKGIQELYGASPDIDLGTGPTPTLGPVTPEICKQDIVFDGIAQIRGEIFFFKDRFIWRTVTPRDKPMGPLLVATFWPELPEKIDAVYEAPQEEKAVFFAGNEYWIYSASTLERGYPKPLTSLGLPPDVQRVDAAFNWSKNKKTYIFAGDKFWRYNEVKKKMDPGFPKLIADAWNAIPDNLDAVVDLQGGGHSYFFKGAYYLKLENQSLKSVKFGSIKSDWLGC
The settings on record: cited from earlier work.

In another assay the target is T2, MMP-1 (Homo sapiens, UniProt P03956).
T2 sequence (P03956 100-469): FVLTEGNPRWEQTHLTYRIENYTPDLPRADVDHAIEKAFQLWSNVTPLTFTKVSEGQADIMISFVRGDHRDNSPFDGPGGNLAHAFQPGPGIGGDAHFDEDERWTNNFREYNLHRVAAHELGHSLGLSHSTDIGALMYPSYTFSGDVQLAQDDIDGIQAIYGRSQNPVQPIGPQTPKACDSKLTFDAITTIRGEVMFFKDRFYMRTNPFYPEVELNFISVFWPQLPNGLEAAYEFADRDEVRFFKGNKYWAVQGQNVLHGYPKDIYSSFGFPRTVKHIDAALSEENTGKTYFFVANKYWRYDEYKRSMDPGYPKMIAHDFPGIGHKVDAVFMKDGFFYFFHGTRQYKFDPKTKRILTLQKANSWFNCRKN
The settings on record: cited from earlier work.

In assay [1] the test system is primary human brain endothelial cells (BECs), brain pericytes, and astrocytes. Briefly: BBB MVN formation under IF with MMP-2 specific inhibitor. The assay is classed as cell-based. The protocol: BBB MVN were formed, consisting of primary human brain endothelial cells (BECs), brain pericytes, and astrocytes.
Triculture were then seeded into single channel devices and grown under IF.
All MVN tissues were immunstained and studied for histology and morphology. Quantitative PCR was also performed to measure MMP-2 levels. The effect of a MMP-2 specific inhibitor was also tested in the BBB model to antagonize the effect induced by IF, as observed in MVNs formed with HUVEC monoculture or HUVEC and HLF co-culture.

In a further assay the target is MMP-3 (Homo sapiens, UniProt P08254). The note with it: cited from earlier work.
Sequence of MMP-3 (P08254 100-477): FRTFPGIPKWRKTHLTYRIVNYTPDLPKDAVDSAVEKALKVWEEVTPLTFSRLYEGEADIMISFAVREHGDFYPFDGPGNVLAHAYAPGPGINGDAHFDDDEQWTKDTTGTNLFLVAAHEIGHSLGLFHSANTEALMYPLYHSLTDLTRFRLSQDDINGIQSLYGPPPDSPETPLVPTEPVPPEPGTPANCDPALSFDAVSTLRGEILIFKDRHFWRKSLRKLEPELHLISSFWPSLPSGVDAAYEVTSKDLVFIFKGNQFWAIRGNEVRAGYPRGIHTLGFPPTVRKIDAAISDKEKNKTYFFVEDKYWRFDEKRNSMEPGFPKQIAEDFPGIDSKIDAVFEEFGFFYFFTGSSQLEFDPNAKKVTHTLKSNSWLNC
For a further assay, the system named is HUVEC and HLF coculture. Briefly: MVN formation by HUVEC and HLF coculture under IF with MMP-2 inhibitor. The assay is classed as cell-based, human. The settings on record: 20 uM. The protocol:
FIGS. 10A-10D are graphs showing that IF enhances formation of fully perfusable microvascular network made by HUVEC and HLF. FIGS. 10A-10D are Statistical analysis of morphological parameters and perfusability of perfusable vessels cultured with various concentration of ARP-100. n=6 devices for control, n=3 devices for each inhibitor treated group. Significance was calculated with two sample t tests. ***P<0.01.
as §2, §3

In another assay the target is T3, MMP-7 (Homo sapiens, UniProt P09237).
T3 sequence (P09237 95-267): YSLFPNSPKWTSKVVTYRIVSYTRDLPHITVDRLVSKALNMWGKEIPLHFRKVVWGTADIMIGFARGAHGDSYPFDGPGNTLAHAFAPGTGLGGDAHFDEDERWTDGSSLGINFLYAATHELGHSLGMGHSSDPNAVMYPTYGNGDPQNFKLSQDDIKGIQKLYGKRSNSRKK
The note with it: cited from earlier work.

For assay [2], the system named is MVN formed by HUVEC monoculture. Kind of assay: Vascular permeability of 40 kDa dextran in perfusable MVN. The assay is classed as cell-based, human. The settings on record: HUVEC monoculture with 10 μM inhibitor under IF. The procedure: as §1, with “FIG. 8E is a graph of vascular permeability measurements of 40 kDa dextran for perfusable MVNs formed under various conditions. n=3 devices for each group, 3 measurements were performed in each device at different ROIs.” left out
In summary, MVN formed without supporting cells tends to be leakier. Since vascular permeability is a critical aspect of functionality of engineered MVN, vascular permeability of 40 kD dextran was measured and compared under various conditions where perfusable vessels can be robustly formed. […] Moreover, all the measurements were in the order of 10^−8 cm/s, which are quite low for vascular permeability measured using 40 kDa dextran. […]

The target of a further assay is MMP-9 (Homo sapiens, UniProt P14780). The note with it: read-out: IC50 for MMP-9; cited from earlier work.
Sequence of MMP-9 (P14780 94-707): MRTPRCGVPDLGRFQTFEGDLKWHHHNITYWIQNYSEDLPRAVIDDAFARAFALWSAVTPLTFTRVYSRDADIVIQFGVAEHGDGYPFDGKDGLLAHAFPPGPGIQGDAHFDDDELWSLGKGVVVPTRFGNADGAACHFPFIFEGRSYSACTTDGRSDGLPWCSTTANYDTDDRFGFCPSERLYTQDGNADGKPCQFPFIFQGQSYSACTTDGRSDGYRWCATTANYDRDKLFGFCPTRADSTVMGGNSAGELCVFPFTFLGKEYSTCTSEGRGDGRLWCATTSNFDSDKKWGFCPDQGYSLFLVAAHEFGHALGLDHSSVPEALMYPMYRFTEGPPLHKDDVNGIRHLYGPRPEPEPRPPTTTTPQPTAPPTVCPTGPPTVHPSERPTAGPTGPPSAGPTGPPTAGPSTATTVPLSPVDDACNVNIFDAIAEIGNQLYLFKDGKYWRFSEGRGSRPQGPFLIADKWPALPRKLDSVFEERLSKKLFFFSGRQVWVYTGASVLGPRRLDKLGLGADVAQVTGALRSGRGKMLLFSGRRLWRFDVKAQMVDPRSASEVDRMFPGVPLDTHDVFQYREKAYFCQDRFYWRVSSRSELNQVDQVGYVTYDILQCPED

Turning to `CC(C)ON(CC(=O)NO)S(=O)(=O)c1ccc(-c2ccccc2)cc1` [ARP-100], in the assay on HUVEC monoculture (10 μM), the “MVN morphology (vessel diameter, coverage area, branches)” value was “significantly narrower vessels, reduced coverage area and increased branches; also recorded: effectively reduced the average diameter and coverage area of vessels”. Moreover, the “perfusability of MVN” value in the assay with HUVEC monoculture (10 μM, in comparison with control group) is “perfusability well maintained”; in the assay with HUVEC and HLF coculture, “can maintain high perfusability”. Further, the “perfusion of MVN with dextran dye” value with HUVEC monoculture (20 μM) was “no vessels can be successfully perfused with dextran dye”. Further, the network structure development result in the assay with HUVEC monoculture (50 uM, day 5) is recorded as “complete failure in developing network structure”. Moreover, the half-inhibitory concentration (IC50) was 12 nM at MMP-2; greater than 50000 nM on MMP-1; 4500 nM on MMP-3; greater than 50000 nM at MMP-7; 200 nM on MMP-9. Further, the “BBB network vessel morphology” value in assay [1] (day 3, 20 uM compared with 10 μM) is “thinner and sparser vessels”. For the same molecule, the “BBB network perfusability and morphology” value in assay [1] (day 6, higher concentration (20 uM)) is recorded as “disconnected thin network segments without any perfusable vessels”; in assay [1] (day 6, low concentration (10 μM)) it was “became perfusable with much thinner vessels compared to untreated ones”. Besides, the “vascular permeability of 40 kD dextran” value in [2] is reported as ~10^−8 cm/s.
As to `CCCC(C)NC(=O)c1ccc(Cl)c(Cl)c1` (stereo not drawn) [NSC 405020], the “changes in formed MVN” value in the assay on HUVEC monoculture (50 μM) was “didn't induce any noticeable changes in formed MVN”.
In the case of `CNC(=O)[C@@H](NC(=O)[C@H](CC(C)C)[C@H](O)C(=O)NO)C(C)(C)C` [marimast], the vessel formation result with HUVEC monoculture (50 μM, 5 days) was “completely disrupted the vessel formation process”.
Consider aprotinin, for which the “development of fully perfusable MVN” value in the assay with HUVEC monoculture (200 U/ml in culture media) is “did not affect the development of fully perfusable MVN”.
On to plasminogen activator inhibitor-1, for which the “development of fully perfusable MVN” value in the assay with HUVEC monoculture (100 uM in culture media) was “did not affect the development of fully perfusable MVN”.

What is called IC50 is the concentration at which inhibition is half-maximal.
